Common to all, as to assay type: in vivo
Assay [1] deals with human ovarian cancer cell line OC-10-JCK. Briefly: Anti-tumor test in mice transplanted subcutaneously with tumor (OC-10-JCK). Particulars: OC-10-JCK s.c. in mice; 40 mg/kg tail vein three times at 4 day intervals. How it is done: (§1) Human ovarian cancer cell lines OC-10-JCK, OC-11-JCK, and TOGY-18, and a human breast cancer cell line MC-19-JCK were obtained from Central Institute for Experimental Animals. Cryopreserved tumor pieces were thawed, and then OC-10-JCK, OC-11-JCK, and MC-19-JCK were transplanted subcutaneously to SCID mice, while TOGY-18 was transplanted subcutaneously to nude mice. After the tumors were grown, the tumors were removed and cut into tumor pieces. The tumor pieces were transplanted subcutaneously to SCID mice or nude mice with trocars. The tumors were maintained by repeated transplantation in the same manner as described above to prepare tumors to be transplanted. Human ovarian cancer cell lines ES-2, SK-OV-3, OV-90, and TOV-21G, and a human lung cancer cell line NCI-H1975 were obtained from American Type Culture Collection (ATCC). The SK-OV-3 and NCI-H1975 cell lines were grown in recommended culture media, of which about 1×10^7 cells were suspended into HBSS and then injected subcutaneously to SCID mice. After the cells formed tumors, the tumors were removed and cut into tumor pieces. The tumor pieces were transplanted subcutaneously to SCID mice with trocars. The tumors were maintained by repeated transplantation in the same manner as described above to prepare tumors to be transplanted. […]

The test system of assay [2] is human ovarian cancer cells OC-11-JCK/CDDP. The assay is described as follows: Anti-tumor test in mice transplanted subcutaneously with tumor (OC-11-JCK/CDDP). Particulars: OC-11-JCK/CDDP s.c. in mice; 40 mg/kg tail vein three times at 4 day intervals. The method, then: as §1
The subject of assay [3] is human ovarian cancer cells OC-11-JCK/PTX. The assay is described as follows: Anti-tumor test in mice transplanted subcutaneously with tumor (OC-11-JCK/PTX). Conditions: OC-11-JCK/PTX s.c. in mice. The method, then:
Human ovarian cancer cell lines OC-10-JCK, OC-11-JCK, and TOGY-18, and a human breast cancer cell line MC-19-JCK were obtained from Central Institute for Experimental Animals. Cryopreserved tumor pieces were thawed, and then OC-10-JCK, OC-11-JCK, and MC-19-JCK were transplanted subcutaneously to SCID mice, while TOGY-18 was transplanted subcutaneously to nude mice. After the tumors were grown, the tumors were removed and cut into tumor pieces. The tumor pieces were transplanted subcutaneously to SCID mice or nude mice with trocars. The tumors were maintained by repeated transplantation in the same manner as described above to prepare tumors to be transplanted. Human ovarian cancer cell lines ES-2, SK-OV-3, OV-90, and TOV-21G, and a human lung cancer cell line NCI-H1975 were obtained from American Type Culture Collection (ATCC). The SK-OV-3 and NCI-H1975 cell lines were grown in recommended culture media, of which about 1×10^7 cells were suspended into HBSS and then injected subcutaneously to SCID mice. After the cells formed tumors, the tumors were removed and cut into tumor pieces. The tumor pieces were transplanted subcutaneously to SCID mice with trocars. The tumors were maintained by repeated transplantation in the same manner as described above to prepare tumors to be transplanted. The OV-90 cell line was grown in a recommended culture medium, of which about 1×10^6 cells were suspended into HBSS and then injected subcutaneously to SCID mice. After the cells formed a tumor, the tumor was subjected to an anti-tumor test. The TOV-21G cell line was grown in a recommended culture medium, of which about 1×10^7 cells were suspended into HBSS and then injected subcutaneously to SCID mice. After the cells formed a tumor, the tumor was subjected to the anti-tumor test. The ES-2 cell line was grown in a recommended culture medium, suspended into HBSS, and then injected subcutaneously to nude mice. After the cells formed a tumor, the tumor was removed and cut into tumor pieces. The tumor pieces were transplanted subcutaneously to nude mice with a trocar. […]

For assay [4], the system named is human breast cancer cells JIMT-1. The assay is described as follows: Anti-tumor test in mice transplanted subcutaneously with tumor (JIMT-1). Conditions: JIMT-1 s.c. in mice; 40 mg/kg three times at 7 day intervals. The method, then:
as §1

The test system of assay [5] is human ovarian cancer cells TOGY-18. Briefly: Anti-tumor test in mice transplanted subcutaneously with tumor (TOGY-18). Particulars: TOGY-18 s.c. in mice; 40 mg/kg tail vein three times at 4 day intervals. The method, then: as §1
For assay [6], the system named is human ovarian cancer cell line ES-2. Briefly: Anti-tumor test in mice transplanted subcutaneously with tumor (ES-2). Conditions: ES-2 s.c. in mice. The method, then:
as §1

For assay [7], the system named is human ovarian cancer cells SK-OV-3. Briefly: Anti-tumor test in mice transplanted subcutaneously with tumor (SK-OV-3). Particulars: SK-OV-3 s.c. in mice. How it is done: as §1
Assay [8] relates to human ovarian cancer cells SHIN-3. Briefly: Anti-tumor test in mice transplanted subcutaneously with tumor (SHIN-3). Particulars: SHIN-3 s.c. in mice. How it is done: as §1
Assay [9] deals with human ovarian cancer cells OVCAR-3. Briefly: Anti-tumor test in mice transplanted subcutaneously with tumor (OVCAR-3).
Setting [10] is: 40 mg/kg tail vein three times at 4 day intervals.

Results on 1 compound are retold here after patent publication US20160313301A1, “METHOD FOR PREDICTING ANTITUMOR EFFICACY OF HSP90 INHIBITOR IN CANCER TREATMENT” (NIPPON KAYAKU KABUSHIKI KAISHA, priority 2013, published 2016).

Each structure is given as a SMILES string. “Also recorded” adds a separate entry of the source.

Regarding `CC(C)c1cc(-c2n[nH]c(=O)n2-c2ccc(CN3CCN(C)CC3)cc2)c(O)cc1O` [A-1, 5-(2,4-dihydroxy-5-isopropyl-phenyl)-4-[4-(4-methyl-piperazin-1-ylmethyl)-phenyl]-2,4-dihydro-[1,2,4]triazol-3-one], the “T/C % (lowest value from the beginning to the 21st day of administration)” value is recorded as 50.2% in [1]; 46.4% in [2]; 62.4% in [3] (setting [10]); 34.9% in assay [4]; 45.2% in [5]; 25.6% in assay [6] (setting [10]). Moreover, the “T/C % (lowest value from the beginning to the 21st day of administration)” value in assay [7] (setting [10]) stood at 3.0%; in [8] (setting [10]), 78.1%; in assay [9] (OVCAR-3 s.c. in NOD/SCID mice, 40 mg/kg tail vein three times at 4 day intervals) it was 34.9%. The “anti-tumor effect (in words)” value in assay [3] is given as “hardly effective; also recorded: lowly effective”; in [6], “relatively highly effective”; in assay [7] it was “relatively highly effective”; in assay [8], “hardly effective; also recorded: lowly effective”; in assay [9] (OVCAR-3 s.c. in mice), “relatively highly effective”.
